In brackets after ≈: the same amount, converted by molar mass.
Experiments:
[1] = test system: aspergillus fumigatus infection of BEAS2B cells; assay: Aspergillus fumigatus infection of bronchial epithelial cells (GM in supernatant); type: cell-based; conditions: bronchial epithelial cells infected with Aspergillus fumigatus; read-out: MIC50 Infection of BEAS2B cells
Experimental: BEAS2B cells were seeded in 96-well plates (100 µL; 30,000 cells / well; Catalogue No 3596, Sigma Aldrich, Dorset, UK) in 10% FBS RPMI-1640 and were then incubated (37° C., 5% CO2) for one day before experimentation. Test compounds (0.5 µL DMSO solution) or vehicle (DMSO) were added to each well to give a final DMSO concentration of 0.5%. BEAS2B cells were incubated with test compounds for 1 hr (35° C., 5% CO2) before infection with aspergillus fumigatus (20 µL; Public Health England) conidia suspension (0.5×10^5 /ml in 10% FBS RPMI-1640). The plate was incubated for 24 hr (35° C., 5% CO2). Supernatant (50 µL) was collected and transferred to a PCR plate (Catalogue No L1402-9700, Starlab, Milton Keynes, UK), which was frozen (-20° C.) until use. After thawing, supernatant (5 µL) was diluted 1:20 by adding R7-PBS solution (95 µL; 1:4 R7 to PBS; Bio-Rad Laboratories, Redmond, WA, USA). GM levels in these samples (50 µL) were measured using Platelia GM-EIA kits (Bio-Rad Laboratories, Redmond, WA, USA). The percentage inhibition for each well was calculated and the IC50 value was calculated from the concentration-response curve generated for each test compound.

[2] = test system: Aspergillus fumigatus NCPF7099; assay: Broth microdilution assay (modified EUCAST); type: cell-based; conditions: Aspergillus fumigatus, NCPF7099, n = 3, read-out: MIC75 against Aspergillus fumigatus isolate NCPF7099
Experimental: (§1) This assay was conducted using a modified method published by EUCAST (Rodriguez-Tudela et al., 2008). Spores of aspergillus fumigatus (NCPF2010, NCPF7010 (Methionine 220 mutation), NCPF7099 (Glycine G54 mutation) from Public Health England, Wiltshire; TR34/L98H mutants from St Louis Hospital, Paris, France) were cultured in Sabouraud dextrose agar for 3 days. A stock spore suspension was prepared from a Sabouraud dextrose agar culture by washing with PBS-tween (10 mL; PBS containing 0.05% Tween-20, 100 U/mL Penicillin and 100 U/mL Streptomycin). The spore count was assessed using a Neubauer haemocytometer and then adjusted to 10^6 spores/mL with PBS. A working suspension of spores (2 × 10^5 spores/mL) was prepared in filter sterilised, BSA MOPS RPMI-1640 (50 mL; RPMI-1640 containing 2 mM L-glutamine, 0.5% BSA, 2% glucose, 0.165 M MOPS, buffered to pH 7 with NaOH). For the assay, BSA MOPS RPMI-1640 (50 µL/well) was added throughout the 384-well plate (Catalogue number 353962, BD Falcon, Oxford, UK) first. Test compounds (0.5 µL DMSO solution) were then added in quadruplicate using an Integra VIAFLO 96 (Integra, Zizers, Switzerland), and mixed well using a plate mixer. Subsequently 50 µL of the working spore suspension prepared above was added to all wells except non-spore control wells. For non-spore control wells, BSA MOPS-RPMI solution (50 µL/well) was added instead. The plate was covered with a plastic lid, and incubated (35° C. with ambient air) for 48 hr. The OD of each well at 530 nm was determined using a multi-scanner (Clariostar: BMG, Buckinghamshire, UK). The percentage inhibition for each well was calculated and the MIC50, MIC75 and MIC90 values were calculated from the concentration-response curve generated for each test compound.

[3] = test system: Aspergillus fumigatus NCPF2010; assay: Broth microdilution assay (modified EUCAST); type: cell-based; conditions: Aspergillus fumigatus, NCPF2010, read-out: MIC75 against Aspergillus fumigatus isolate NCPF2010
Experimental: as §1

[4] = test system: Aspergillus fumigatus L98H (TR34/L98H); assay: Broth microdilution assay (modified EUCAST); type: cell-based; conditions: Aspergillus fumigatus, read-out: MIC75 against Aspergillus fumigatus isolate L98H
Experimental: as §1

[5] = test system: Aspergillus fumigatus NCPF7100; assay: Broth microdilution assay (modified EUCAST); type: cell-based; conditions: Aspergillus fumigatus, NCPF7100, read-out: MIC75 against Aspergillus fumigatus isolate NCPF7100
[6] = Cell viability: resazurin assay; type: cell-based, human; conditions: human, BEAS2B cells; n = 3-5
Experimental: BEAS2B cells were seeded in 384-well plates (100 µL; 3000 / well /; BD Falcon, Catalogue No 353962) in RPMI-LHC8 (RPMI-1640 and LHC8 media combined in equal proportions) one day before experimentation. For cell-free control wells, RPMI-LHC8 (100 µL) was added. Test compounds (0.5 µL of a DMSO solution) were added to give a final DMSO concentration of 0.5% using an Integra VIAFLO 96 (Integra, Zizers, Switzerland). BEAS2B cells were incubated with each test compound for 1 day (37° C. / 5% CO2 in RPMI-LHC8). After addition of resazurin stock solution (5 µL, 0.04%) the plates were incubated for a further 4 hr (37° C. / 5% CO2). The fluorescence of each well at 545 nm (excitation) and 590 nm (emission) was determined using a multi-scanner (Clariostar: BMG Labtech). The percentage loss of cell viability was calculated for each well relative to vehicle (0.5% DMSO) treatment. Where appropriate, a CC50 value was calculated from the concentration-response curve generated from the concentration-response curve for each test compound.

Structure (SMILES) | MIC50 [1] [µM] | MIC [2] [µM] | MIC [3] [µM] | MIC [4] [µM] | MIC [5] [µM] | CC50 at 1 day [6] [µM]
Cc1cc(N2CCN(c3ccc(C(=O)Nc4ccc(OC(F)F)c(F)c4)cc3)CC2)ccc1OC[C@@H]1CO[C@@](Cn2cncn2)(c2ccc(F)cc2F)C1 [Example 25, 4-(4-(4-(((3R,5R)-5-((1H-1,2,4-triazol-1-yl)methyl)-5-(2,4-difluorophenyl)tetrahydrofuran-3-yl)methoxy)-3-methylphenyl)piperazin-1-yl)-N-(4-(difluoromethoxy)-3-fluorophenyl) benzamide] | 0.23 (≈ 0.172 µg/mL) | 0.0251 (≈ 0.0188 µg/mL) | 0.0845 (≈ 0.0633 µg/mL) | 0.0659 (≈ 0.0493 µg/mL) | 0.0476 (≈ 0.0356 µg/mL) | > 13.4
Cc1cc(N2CCN(c3ccc(C(=O)Nc4cc(F)ccc4F)cc3)CC2)ccc1OC[C@@H]1CO[C@@](Cn2cncn2)(c2ccc(F)cc2F)C1 [Example 26, 4-(4-(4-(((3R, 5R)-5-((1H-1,2,4-triazol-1-yl)methyl)-5-(2,4-difluorophenyl)tetrahydrofuran-3-yl)methoxy)-3-methylphenyl)piperazin-1-yl)-N-(2,5-difluorophenyl)benzamide] | > 1.43 | 0.131 (≈ 0.0918 µg/mL) | 0.0311 (≈ 0.0218 µg/mL) | 0.126 (≈ 0.0883 µg/mL) | 0.091 (≈ 0.0638 µg/mL) | > 14.3
Cc1cc(N2CCN(c3ccc(C(=O)Nc4cc(F)cc(F)c4)cc3)CC2)ccc1OC[C@@H]1CO[C@@](Cn2cncn2)(c2ccc(F)cc2F)C1 [Example 28, 4-(4-(4-(((3R, 5R)-5-((1H-1,2,4-triazol-1-yl)methyl)-5-(2,4-difluorophenyl)tetrahydrofuran-3-yl)methoxy)3-methylphenyl)piperazin-1-yl)-N-(3,5-difluorophenyl)benzamide] | 0.0117 (≈ 0.0082 µg/mL) | 0.0266 (≈ 0.0186 µg/mL) | 0.0319 (≈ 0.0224 µg/mL) | 0.198 (≈ 0.139 µg/mL) | 0.0361 (≈ 0.0253 µg/mL) | > 14.3
Cc1cc(N2CCN(c3ccc(C(=O)Nc4ccc(Cl)cc4F)cc3)CC2)ccc1OC[C@@H]1CO[C@@](Cn2cncn2)(c2ccc(F)cc2F)C1 [Example 29, 4-(4-(4-(((3R, 5R)-5-((1H-1,2,4-triazol-1-yl)methyl)-5-(2,4-difluorophenyl)tetrahydrofuran-3-yl)methoxy)-3-methylphenyl)piperazin-1-yl)-N-(4-chloro-2-fluorophenyl)benzamide] | 0.0145 (≈ 0.0104 µg/mL) | 0.037 (≈ 0.0265 µg/mL) | 0.0285 (≈ 0.0204 µg/mL) | 0.12 (≈ 0.0861 µg/mL) | 0.0538 (≈ 0.0386 µg/mL) | > 13.9
Cc1cc(N2CCN(c3ccc(C(=O)Nc4ccc(Cl)c(F)c4)cc3)CC2)ccc1OC[C@@H]1CO[C@@](Cn2cncn2)(c2ccc(F)cc2F)C1 [Example 30, 4-(4-(4-(((3R, 5R)-5-((1H-1,2,4-triazol-1-yl)methyl)-5-(2,4-difluorophenyl)tetrahydrofuran-3-yl)methoxy)-3-methylphenyl)piperazin-1-yl)-N-(4-chloro-3-fluorophenyl)benzamide] | 1.05 (≈ 0.753 µg/mL) | 0.0347 (≈ 0.0249 µg/mL) | 0.0584 (≈ 0.0419 µg/mL) | 0.191 (≈ 0.137 µg/mL) | 0.0413 (≈ 0.0296 µg/mL) | > 13.9
Cc1cc(N2CCN(c3ccc(C(=O)Nc4c(F)cc(F)cc4F)cc3)CC2)ccc1OC[C@@H]1CO[C@@](Cn2cncn2)(c2ccc(F)cc2F)C1 [Example 31, 4-(4-(4-(((3R, 5R)-5-((1H-1,2,4-triazol-1-yl)methyl)-5-(2,4-difluorophenyl)tetrahydrofuran-3-yl)methoxy)3-methylphenyl)piperazin-1-yl)-N-(2,4,6-trifluorophenyl)benzamide] | 0.0107 (≈ 0.00769 µg/mL) | 0.0109 (≈ 0.00783 µg/mL) | 0.0439 (≈ 0.0316 µg/mL) | 0.163 (≈ 0.117 µg/mL) | 0.0679 (≈ 0.0488 µg/mL) | > 13.9
Cc1cc(N2CCN(c3ccc(C(=O)Nc4ccc(F)cc4)cc3C)CC2)ccc1OC[C@@H]1CO[C@@](Cn2cncn2)(c2ccc(F)cc2F)C1 [Example 32, 4-(4-(4-(((3R,5R)-5-((1H-1,2,4-triazol-1-yl)methyl)-5-(2,4-difluorophenyl)tetrahydrofuran-3-yl)methoxy)-3-methylphenyl)piperazin-1-yl)-N-(4-fluorophenyl)-3-methylbenzamide] | 0.0261 (≈ 0.0182 µg/mL) | 0.0481 (≈ 0.0335 µg/mL) | 0.0697 (≈ 0.0486 µg/mL) | 0.0695 (≈ 0.0484 µg/mL) | 0.0609 (≈ 0.0424 µg/mL) | > 14.4
Cc1cc(N2CCN(c3ccc(C(=O)Nc4ccc(F)cc4)c(C)c3)CC2)ccc1OC[C@@H]1CO[C@@](Cn2cncn2)(c2ccc(F)cc2F)C1 [Example 33, 4-(4-(4-(((3R, 5R)-5-((1H-1,2,4-triazol-1-yl)methyl)-5-(2,4-difluorophenyl)tetrahydrofuran-3-yl)methoxy)-3-methylphenyl)piperazin-1-yl)-N-(4-fluorophenyl)-2-methylbenzamide] | 0.0435 (≈ 0.0303 µg/mL) | 0.0489 (≈ 0.0341 µg/mL) | 0.0135 (≈ 0.00941 µg/mL) | 0.0679 (≈ 0.0473 µg/mL) | 0.0236 (≈ 0.0164 µg/mL) | > 14.4
COc1cc(C(=O)Nc2ccc(F)cc2)ccc1N1CCN(c2ccc(OC[C@@H]3CO[C@@](Cn4cncn4)(c4ccc(F)cc4F)C3)c(C)c2)CC1 [Example 34, 4-(4-(4-(((3R, 5R)-5-((1H-1,2,4-triazol-1-yl)methyl)-5-(2,4-difluorophenyl)tetrahydrofuran-3-yl)methoxy)3-methylphenyl)piperazin-1-yl)-N-(4-fluorophenyl)-3-methoxybenzamide] | 0.0219 (≈ 0.0156 µg/mL) | 0.029 (≈ 0.0207 µg/mL) | 0.0446 (≈ 0.0318 µg/mL) | 0.0739 (≈ 0.0527 µg/mL) | 0.0148 (≈ 0.0105 µg/mL) | > 14
COc1cc(N2CCN(c3ccc(OC[C@@H]4CO[C@@](Cn5cncn5)(c5ccc(F)cc5F)C4)c(C)c3)CC2)ccc1C(=O)Nc1ccc(F)cc1 [Example 35, 4-(4-(4-(((3R,5R)-5-((1H-1,2,4-triazol-1-yl)methyl)-5-(2,4-difluorophenyl)tetrahydrofuran-3-yl)methoxy)-3-methylphenyl)piperazin-1-yl)-N-(4-fluorophenyl)-2-methoxybenzamide] | 0.125 (≈ 0.0891 µg/mL) | 0.109 (≈ 0.0777 µg/mL) | 0.0634 (≈ 0.0452 µg/mL) | 0.178 (≈ 0.127 µg/mL) | 0.111 (≈ 0.0791 µg/mL) | > 14

— patent publication US20230295133A1, “PROCESS FOR PREPARING A COMPOUND USEFUL TO TREAT MYCOSES” (PULMOCIDE LIMITED, priority 2014, published 2023)
